Results published in PubChem BioAssay (NCI).
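In this assay, cells in 96-well plates receive the compound at five concentrations for 48 hours. Endpoints are linearly interpolated between the surrounding concentrations. At the TGI there is no net growth.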

What was measured:
Experiment in all cases: NCI tumour cell line growth inhibition, 48 h
786-0 renal = system: 786-0 renal
A498 renal = system: A498 renal
A549 NSCLC = system: A549 NSCLC
ACHN renal = system: ACHN renal
BT-549 breast = system: BT-549 breast
CAKI-1 renal = system: CAKI-1 renal
CCRF-CEM leukemia = system: CCRF-CEM leukemia
COLO 205 colon = system: COLO 205 colon
DU-145 prostate = system: DU-145 prostate
EKVX NSCLC = system: EKVX NSCLC
HCC-2998 colon = system: HCC-2998 colon
HCT-116 colon = system: HCT-116 colon
HCT-15 colon = system: HCT-15 colon
HL-60(TB) leukemia = system: HL-60(TB) leukemia
HOP-62 NSCLC = system: HOP-62 NSCLC
HOP-92 NSCLC = system: HOP-92 NSCLC
HS 578T breast = system: HS 578T breast
HT29 colon = system: HT29 colon
IGROV1 ovarian = system: IGROV1 ovarian
K-562 leukemia = system: K-562 leukemia
KM12 colon = system: KM12 colon
LOX IMVI melanoma = system: LOX IMVI melanoma
M14 melanoma = system: M14 melanoma
MCF7 breast = system: MCF7 breast
MDA-MB-231 breast = system: MDA-MB-231 breast
MDA-MB-435 = system: MDA-MB-435
MDA-N = system: MDA-N
MOLT-4 leukemia = system: MOLT-4 leukemia
NCI-H226 lung = system: NCI-H226 lung
NCI-H23 lung = system: NCI-H23 lung
NCI-H460 lung = system: NCI-H460 lung
NCI/ADR-RES ovarian = system: NCI/ADR-RES ovarian
OVCAR-3 ovarian = system: OVCAR-3 ovarian
OVCAR-4 ovarian = system: OVCAR-4 ovarian
OVCAR-5 ovarian = system: OVCAR-5 ovarian
OVCAR-8 ovarian = system: OVCAR-8 ovarian
PC-3 prostate = system: PC-3 prostate
RPMI-8226 leukemia = system: RPMI-8226 leukemia
RXF 393 renal = system: RXF 393 renal
SF-268 CNS = system: SF-268 CNS
SF-295 CNS = system: SF-295 CNS
SF-539 CNS = system: SF-539 CNS
SK-MEL-2 melanoma = system: SK-MEL-2 melanoma
SK-MEL-28 melanoma = system: SK-MEL-28 melanoma
SK-OV-3 ovarian = system: SK-OV-3 ovarian
SN12C renal = system: SN12C renal
SNB-19 CNS = system: SNB-19 CNS
SNB-75 CNS = system: SNB-75 CNS
SR leukemia = system: SR leukemia
SW-620 colon = system: SW-620 colon
T-47D breast = system: T-47D breast
TK-10 renal = system: TK-10 renal
U251 CNS = system: U251 CNS
UACC-257 melanoma = system: UACC-257 melanoma
UACC-62 melanoma = system: UACC-62 melanoma
UO-31 renal = system: UO-31 renal
NCI-H522 lung = system: NCI-H522 lung
SK-MEL-5 melanoma = system: SK-MEL-5 melanoma

Measured: TGI

NC(N)=NCCCC(NC(=O)OCCCCCn1ccc(N)nc1=O)C(=O)O (configuration not stated)
> 100 µM: 786-0 renal | A498 renal | A549 NSCLC | ACHN renal | BT-549 breast | CAKI-1 renal | CCRF-CEM leukemia | COLO 205 colon | DU-145 prostate | EKVX NSCLC | HCC-2998 colon | HCT-116 colon | HCT-15 colon | HL-60(TB) leukemia | HOP-62 NSCLC | HOP-92 NSCLC | HS 578T breast | HT29 colon | IGROV1 ovarian | K-562 leukemia | KM12 colon | LOX IMVI melanoma | M14 melanoma | MCF7 breast | MDA-MB-231 breast | MDA-MB-435 | MDA-N | MOLT-4 leukemia | NCI-H226 lung | NCI-H23 lung | NCI-H460 lung | NCI/ADR-RES ovarian | OVCAR-3 ovarian | OVCAR-4 ovarian | OVCAR-5 ovarian | OVCAR-8 ovarian | PC-3 prostate | RPMI-8226 leukemia | RXF 393 renal | SF-268 CNS | SF-295 CNS | SF-539 CNS | SK-MEL-2 melanoma | SK-MEL-28 melanoma | SK-OV-3 ovarian | SN12C renal | SNB-19 CNS | SNB-75 CNS | SR leukemia | SW-620 colon | T-47D breast | TK-10 renal | U251 CNS | UACC-257 melanoma | UACC-62 melanoma | UO-31 renal

[N-]=[N+]=NCC1OCC(O)C(OCc2ccccc2)C1OCc1ccccc1 (configuration not stated)
> 100 µM: 786-0 renal | A498 renal | A549 NSCLC | ACHN renal | BT-549 breast | CAKI-1 renal | CCRF-CEM leukemia | COLO 205 colon | DU-145 prostate | EKVX NSCLC | HCC-2998 colon | HCT-116 colon | HCT-15 colon | HL-60(TB) leukemia | HOP-62 NSCLC | HOP-92 NSCLC | HS 578T breast | HT29 colon | IGROV1 ovarian | K-562 leukemia | KM12 colon | LOX IMVI melanoma | M14 melanoma | MCF7 breast | MDA-MB-231 breast | MDA-MB-435 | MDA-N | MOLT-4 leukemia | NCI-H226 lung | NCI-H23 lung | NCI-H460 lung | NCI-H522 lung | NCI/ADR-RES ovarian | OVCAR-3 ovarian | OVCAR-4 ovarian | OVCAR-5 ovarian | OVCAR-8 ovarian | PC-3 prostate | RPMI-8226 leukemia | SF-268 CNS | SF-295 CNS | SF-539 CNS | SK-MEL-2 melanoma | SK-MEL-28 melanoma | SK-MEL-5 melanoma | SK-OV-3 ovarian | SN12C renal | SNB-19 CNS | SNB-75 CNS | SR leukemia | SW-620 colon | T-47D breast | TK-10 renal | U251 CNS | UACC-257 melanoma | UACC-62 melanoma | UO-31 renal

O=C(Cn1nnc(-c2ccccc2)n1)N/N=C/c1cn(Cc2ccc(Cl)cc2Cl)c2ccccc12
> 100 µM: 786-0 renal | A498 renal | A549 NSCLC | ACHN renal | BT-549 breast | CAKI-1 renal | CCRF-CEM leukemia | COLO 205 colon | DU-145 prostate | EKVX NSCLC | HCT-116 colon | HCT-15 colon | HL-60(TB) leukemia | HOP-62 NSCLC | HOP-92 NSCLC | HS 578T breast | HT29 colon | IGROV1 ovarian | K-562 leukemia | KM12 colon | LOX IMVI melanoma | M14 melanoma | MCF7 breast | MDA-MB-231 breast | MDA-MB-435 | MDA-N | MOLT-4 leukemia | NCI-H23 lung | NCI-H460 lung | NCI-H522 lung | NCI/ADR-RES ovarian | OVCAR-3 ovarian | OVCAR-4 ovarian | OVCAR-5 ovarian | OVCAR-8 ovarian | PC-3 prostate | RPMI-8226 leukemia | SF-268 CNS | SF-295 CNS | SF-539 CNS | SK-MEL-2 melanoma | SK-MEL-5 melanoma | SK-OV-3 ovarian | SN12C renal | SNB-19 CNS | SNB-75 CNS | SR leukemia | SW-620 colon | T-47D breast | TK-10 renal | U251 CNS | UACC-257 melanoma | UACC-62 melanoma | UO-31 renal
